Experimental data from US4347319A, “Microbiological epoxidation process” (priority 1980, dated 1982).

How the values were obtained:
[1] = target: T1, cell fractions of Methylosinus sp. (CRL-15, NRRL B-11,202) (Methylosinus trichosporium, UniProt Q50541+Q9KX50+Q9KX51); assay: Oxidation by cell fractions P(40), P(80), S(80); format: biochemical; settings: P(40) particulate fraction; alkene to epoxide, alkane to alcohol; 30° C.
T1 sequence (Q9KX50 40-431): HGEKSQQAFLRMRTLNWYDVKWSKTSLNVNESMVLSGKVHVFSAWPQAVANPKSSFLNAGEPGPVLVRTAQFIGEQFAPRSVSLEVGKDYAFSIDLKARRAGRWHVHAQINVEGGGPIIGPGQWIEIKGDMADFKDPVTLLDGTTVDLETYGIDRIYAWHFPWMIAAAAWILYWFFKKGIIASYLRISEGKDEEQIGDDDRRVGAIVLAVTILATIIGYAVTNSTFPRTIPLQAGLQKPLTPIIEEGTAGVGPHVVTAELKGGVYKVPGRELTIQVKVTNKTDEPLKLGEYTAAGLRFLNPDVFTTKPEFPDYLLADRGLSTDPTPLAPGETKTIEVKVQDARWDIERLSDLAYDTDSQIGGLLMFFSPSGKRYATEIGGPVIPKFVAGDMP
T1 sequence (Q50541 1-252): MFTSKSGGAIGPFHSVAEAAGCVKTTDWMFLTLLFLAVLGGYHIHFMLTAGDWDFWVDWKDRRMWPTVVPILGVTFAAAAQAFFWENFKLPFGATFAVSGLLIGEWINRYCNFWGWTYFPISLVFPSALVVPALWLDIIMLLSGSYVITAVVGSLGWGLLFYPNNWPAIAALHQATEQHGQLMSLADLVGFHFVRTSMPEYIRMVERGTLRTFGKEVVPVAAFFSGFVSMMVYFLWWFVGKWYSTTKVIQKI
T1 sequence (Q9KX51 1-256): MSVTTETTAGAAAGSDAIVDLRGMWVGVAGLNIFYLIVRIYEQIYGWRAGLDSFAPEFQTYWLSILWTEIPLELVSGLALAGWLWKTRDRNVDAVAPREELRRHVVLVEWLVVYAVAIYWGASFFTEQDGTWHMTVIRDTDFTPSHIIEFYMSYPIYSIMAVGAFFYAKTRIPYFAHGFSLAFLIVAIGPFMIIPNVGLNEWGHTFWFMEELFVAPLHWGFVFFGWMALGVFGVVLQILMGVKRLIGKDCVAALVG
Procedure: Cells were washed twice with 25 mM potassium phosphate buffer, pH 7.0 containing 5 mM MgCl2. Cells were suspended in the same buffer. The cell suspensions at 4° C. were disintegrated by a single passage through a French Pressure cell (15,000 lb./in.^2) and centrifuged at 5000×g. for 15 min. to remove unbroken bacteria. The supernatant solution (crude extract) was then centrifuged at 40,000×g. for 30 min., yielding particulate P(40) and soluble S(40) fractions. The S(40) fraction was subsequently centrifuged at 80,000×g. for 60 min., yielding particulate P(80) and soluble S(80) fractions. The particulate fractions [P(40) and P(80)] were suspended in 25 mM potassium phosphate buffer, pH 7.0, containing 5 mM MgCl2 and homogenized at 4° C.
The oxidation of methane and propylene by particulate [(P)40 and (P)80] fractions and soluble [S(80)] fraction was measured at 30° C. by estimating the production of methanol and propylene oxide, respectively. The reaction mixtures contained in […]: 150 mM potassium phosphate buffer, pH 7.0 containing 5 mM MgCl2 b, 0.6 ml; 10μ moles NADH, and cellular fraction.
Reaction mixtures were contained in 10 ml vials at 4° C. Vials were sealed with rubber caps. The gaseous phase in the vials was removed using vacuum and then was replaced with a gas mixture of methane or propylene and oxygen at a 1:1, v/v ratio. Oxidation of other gaseous n-alkanes and n-alkanes was examined as described above. For liquid substrates, 10 μl of substrate was used directly.
The products of epoxidation of n-alkenes and hydroxylation of n-alkanes were assayed by flame ionization gas chromatography using a stainless steel column (12'×1/8") packed with 10% Carbowax 20 M on 80/100 Chromosorb W and Porapak Q column. The column temperature was maintained isothermally at 120° C. The carrier gas flow rate was 30 ml/min. of helium. The various products were identified by retention time comparisons and co-chromatography with authentic standards.
Specific activities were expressed as μ moles of products formed per hour per mg. protein. Concentrations of protein in various fractions were determined by the method of Lowry et al., J. Biol. Chem., 193: 265-275 (1951).

[2] = tested on: methane-grown methylotrophic microorganisms; assay: Epoxidation by methane-grown cells of the strains of the invention; format: cell-based
Procedure: The pH of the nutrient medium was adjusted to 7.0 by the addition of acid or base and 50 ml samples of the nutrient medium were charged into a plurality of 300 ml shaker flasks. The shaker flasks were inoculated with an inoculating loop of cells from an agar plate containing homogeneous colonies of the microorganisms on the plate (the purity of the isolates was confirmed by microscopic examination. The isolates had been maintained on agar plates under an atmosphere of methane and air having a 1:1 v/v gas ratio which had been transferred evey two weeks. The gaseous phase of the inoculated flasks was then replaced with a gas mixture comprised of methane and air having a ratio of 1:1 on a v/v basis. The inoculated flasks were sealed air tight and were incubated on a rotary shaker of orbital radius 2.5 cm at 250 rpm and at 30° C. for two days until turbidity in the medium had developed.
The cells were harvested by centrifugation at 10,000×g. at 4° C. for 30 minutes. The cell pellet was washed twice with a 0.15 M phosphate buffer at a pH of 7.0 (containing 0.002 M MgCl2). […]
A 0.5 ml sample of each washed cell suspension (2 mg cells) was put into 10 ml vials at 4° C. which were sealed with a rubber cap. […] Samples of product (3 μl) were withdrawn periodically with a microsyringe and the products were analyzed by gas chromatography (ionization flame detector column). […]

C=CCCC [1-Pentene]
Rate of Product Formation [1]: 0 μ moles/hr/mg of protein | epoxide product formation [2]: did not produce any detectable epoxide product
